Measurements: patent US9096889B2, “Compositions and methods for monitoring transmembrane trafficking” (Promega Corporation, priority 2011, dated 2015)

Experiments:
AT1R/FFluc fusion = AT1R/FFluc fusion endocytosis assay (reduction of luciferase signal); assay type: cell-based; settings: varying concentrations, 15 minutes stimulation, FIG. 8
Protocol: For FFluc-V2R and FFluc-AT1R, plasmid DNA was transfected at 5 ng/well and 0.16 ng/well respectively. For transfection into HeLa cells, plasmid DNA was diluted 1:10 into carrier DNA yielding 5 ng/well plasmid DNA. […] 50 μL per well of luciferase substrate, D-luciferin, was then added to a final concentration of 0.2 mM D-luciferin, 2 mM MgCl2, and 2 mM ATP, and the cells incubated for 30 minutes at 37° C. For AT1R and V2R, 0.02 mM D-luciferin was used. For the luc2-B2AR experiment, 0.01 mM D-luciferin was used. For the FFLuc experiment using the D-luciferin derivative, PBI-3102, 0.02 mM substrate was used. Immediately prior to stimulation, luminescence was measured on a GLOMAX Multi Plus plate reader set to 0.5 s of integration time. Cells were then stimulated with the agonist indicated below ( 1/10 volume addition), and luminescence measured every two minutes in real-time. […] As controls, cells were treated with vehicle (Opti-MEM containing either DMSO or water). Normalized luminescence was determined by dividing the luminescence value (RLUs) of each sample by the luminescence from the same sample prior to stimulation (SEE FIG. 1A-D).
Cells were transfected with plasmid DNA encoding AT1R/FFluc fusion. […] Immediately prior to stimulation, luminescence was measured. Cells were then stimulated with varying concentrations of TRV120027 for 15 minutes, and luminescence detected. […]

[1] = target: beta2-adrenergic receptor (B2AR) fused to firefly luciferase (luc2) (UniProt P07550+P08659, E27Q/G16R/N119G/N50D); settings: HEK293 cells, serially diluted agonist 30 minutes, trypsin/EDTA, D-luciferin without Mg/ATP, FIG. 2F
beta2-adrenergic receptor (B2AR) fused to firefly luciferase (luc2), sequence (P08659+P07550 fused P08659:N50D/P08659:N119G/P07550:G16R/P07550:E27Q): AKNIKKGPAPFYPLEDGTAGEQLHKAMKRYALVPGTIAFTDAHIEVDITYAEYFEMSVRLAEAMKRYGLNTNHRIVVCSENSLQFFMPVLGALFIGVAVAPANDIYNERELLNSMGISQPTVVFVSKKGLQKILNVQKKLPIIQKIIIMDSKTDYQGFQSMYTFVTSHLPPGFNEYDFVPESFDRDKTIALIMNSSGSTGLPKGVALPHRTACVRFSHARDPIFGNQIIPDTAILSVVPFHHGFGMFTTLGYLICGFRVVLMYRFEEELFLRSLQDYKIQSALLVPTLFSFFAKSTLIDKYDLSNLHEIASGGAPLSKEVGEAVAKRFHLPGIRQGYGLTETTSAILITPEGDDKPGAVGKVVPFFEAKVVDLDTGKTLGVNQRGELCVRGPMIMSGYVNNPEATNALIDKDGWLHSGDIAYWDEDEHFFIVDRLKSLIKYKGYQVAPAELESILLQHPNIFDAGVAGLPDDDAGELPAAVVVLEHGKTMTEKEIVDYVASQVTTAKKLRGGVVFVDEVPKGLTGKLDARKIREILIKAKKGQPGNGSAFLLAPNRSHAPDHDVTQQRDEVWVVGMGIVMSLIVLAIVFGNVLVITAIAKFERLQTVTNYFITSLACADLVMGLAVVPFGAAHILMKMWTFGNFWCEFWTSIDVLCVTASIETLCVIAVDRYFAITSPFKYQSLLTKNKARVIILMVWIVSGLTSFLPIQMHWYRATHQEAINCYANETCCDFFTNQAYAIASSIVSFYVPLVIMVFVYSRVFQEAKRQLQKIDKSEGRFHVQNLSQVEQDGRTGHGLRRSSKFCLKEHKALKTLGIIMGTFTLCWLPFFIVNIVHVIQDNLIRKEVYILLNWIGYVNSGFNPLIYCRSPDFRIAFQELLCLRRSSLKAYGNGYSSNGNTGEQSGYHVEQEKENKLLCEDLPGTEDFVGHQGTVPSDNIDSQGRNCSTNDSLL

Row | internalization of AT1R/FFluc fusion proteins (normalized luminescence) (AT1R/FFluc fusion) | Compound | raw luminescence signal (endocytosis, gain of signal), negative control (B2AR) fusion proteins [1]
1 | detected internalization | CC[C@H](C)[C@H](NC(=O)[C@H](Cc1ccc(O)cc1)NC(=O)[C@@H](NC(=O)[C@H](CCCNC(=N)N)NC(=O)CNC)C(C)C)C(=O)N[C@@H](Cc1cnc[nH]1)C(=O)N1CCC[C@H]1C(=O)N[C@H](C)C(=O)O [TRV120027] | 
2 |  | NC(=O)CC[C@@H]1NC(=O)[C@H](Cc2ccccc2)NC(=O)[C@H](Cc2ccc(O)cc2)NC(=O)[C@@H](N)CSSC[C@@H](C(=O)N2CCC[C@H]2C(=O)N[C@@H](CCCN=C(N)N)C(=O)NCC(N)=O)NC(=O)[C@H](CC(N)=O)NC1=O [arginine vasopressin] | no increase
